Assay results taken from patent US20090177280A1, “Implant With Multiple Coating” (priority 2005, published 2009).
Entries after “also recorded” stand apart in the source; their conditions may differ. Blank lines part the entries; values can stand above or below the molecule they belong to.

Experiment: Release of rapamycin from spray-coated microporous stents (UV spectroscopy at 280 nm)
Format: physicochemical
Conditions: for effect of second drug on rapamycin release from the stent platform: 0.5% and 1.0% 17β estradiol valerate added to 1% rapamycin solution in ethanol
Description: Microporous stents are spray-coated by means of a unique stent-coating machine (Wessely et al, supra). Attachment of a drug-reservoir is required to supply one or multiple drugs of choice. Besides sirolimus (rapamycin) we included a second drug at different concentrations to examine whether release kinetics of the primary compound (e.g. sirolimus) could be altered. Released rapamycin from the stent platform were measured at distinctive time points as previously described (Wessely, supra) by means of UV spectroscopy at a wave length of 280 nm.
The experiment was carried out as Example 1 with the exception that 17β estradiol was used as second drug.
The experiment was carried out as Example 1 with the exception that rosiglitazone was used as second drug.
The experiment was carried out as Example 1 with the exception that probucol was used as second drug.

effect of second drug on rapamycin release from the stent platform (0.1%): substantially modulate rapamycin release
effect of second drug on rapamycin release from the stent platform (0.1%, listed as estradiolvalerat): retardation
Structure (SMILES): CCCCC(=O)O[C@H]1CC[C@H]2[C@@H]3CCc4cc(O)ccc4[C@H]3CC[C@]12C [17β estradiol valerate]

effect of second drug on stent-based rapamycin release (multiplex coating with rapamycin (1%) and carvedilol (0.5%) in ethanol vs single coated rapamycin (1%)): clear retardation
Structure (SMILES): COc1ccccc1OCCNCC(O)COc1cccc2[nH]c3ccccc3c12 (stereo not shown) [carvedilol]

Structure (SMILES): CC(C)(Sc1cc(C(C)(C)C)c(O)c(C(C)(C)C)c1)Sc1cc(C(C)(C)C)c(O)c(C(C)(C)C)c1 [probucol, 4,4′-(isopropylidenedithio) bis(2,6-di-tert-butyl-phenol)]
effect of second drug on release of rapamycin from the stent (0.1%, 0.5% and 1.0% probucol added to 4% rapamycin solution in ethanol, polymer-free): protracts the release of rapamycin; also recorded: modifiable
